{"source": "patent US11179469B2", "about": "“Transdermal absorption preparation” (Nitto Denko Corporation, priority 2017, dated 2021)", "test": "Octanol/water partition coefficient of the drug (log P1)", "format": "physicochemical", "settings": "base 10 logarithm", "description": "The octanol/water partition coefficient is the ratio of the distribution of a certain chemical substance respectively to n-octanol and water (ratio of the concentration in n-octanol phase and aqueous phase). It is used as an index showing hydrophobicity and transferability of the chemical substance, and can be measured by the flask shaking method prescribed in the Economic Development Cooperation Organization (OECD) Test Guideline 107 and the like or calculated using the calculation software (“Cache Workspace (registered trade mark)” manufactured by Fujitsu Limited) etc. and inputting the structural formula of the compound. The octanol/water partition coefficient of the polymer is calculated using the molecule structural formula in a monomer unit.", "data": [{"smiles": "CC(C)(C)NCC(O)c1ccccc1Cl", "note": "(centres unmarked) [Tulobuterol]", "values": [{"measurement": "logP1 (octanol/water partition coefficient of the drug)", "value": 2.55}]}, {"smiles": "CC(C)C[C@H](CN)CC(=O)O", "note": "[pregabalin]", "values": [{"measurement": "logP1 (octanol/water partition coefficient of the drug)", "value": 0.89}]}]}
